Measured values published in patent publication US20260232673A1, “ISOINDOLINONE GLUTARIMIDE AND PHENYL GLUTARIMIDE ANALOGS AS DEGRADERS OF RET KINASE” (Bristol-Myers Squibb Company, priority 2023, published 2026).

Biological target: T1, CCDC6-RET fusion (Homo sapiens, UniProt P07949+Q16204+Q96SW2)
T1 construct: CCDC6 (N-terminal fusion partner from the natural gene rearrangement, Q16204); endogenous in cells; host or cells: TPC-1 (parental) papillary thyroid carcinoma cells
Experiment: Cellular RET degradation assay (AlphaLISA Surefire Ultra, TPC-1 cells)
Type: cell-based
Settings: half-maximal degradation concentration (DC50); parental TPC-1/CCDC6-RET cell line; 24 hrs compound treatment; AlphaLISA luminescence; read-out: Cell Density TPC-1/CCDC6-RET IC50
Experimental: Cellular RET degradation compound potency was determined using the bead-based luminescent amplification assay—AlphaLISA Surefire Ultra Detection Kit (Perkin-Elmer). The CCDC6-RET fusion expressing papillary thyroid carcinoma (TPC-1) cell line was selected for screening of potential degraders: Parental (TPC-1/CCDC6-RET). Cells were plated in 384 well culture plates (Greiner Bio-One) at 10,000 cells/well in 50 ul/well DMEM (Fisher Scientific) with 2% FBS serum (Gibco). […] Low normalization wells were media only and high normalization wells were cells treated with DMSO only. Treated cell plates were placed in an incubator at 37C and 5% CO2 for 24 hrs. At 24 hrs, cell media was removed by a FELIX automated liquid hander (Analytik Jena) and 25 ul of cell lysis buffer (provided in AlphaLisa kit) was added to each well. 5 ul cell lysate were transferred into a 384-well microplate (Perkin Elmer) before addition of 2.5 ul AlphaLISA Acceptor Bead mix. The plates were sealed and kept at room temperature for 1 hr before addition of donor bead mixture. Donor bead addition was performed in the dark and incubated for >1 hr before AlphaLISA luminescence was measured on an Envision plate reader with an Alphascreen aperture at RT (excitation 680 nm, emission 615 nm). RET protein abundance (and therefore degradation) directly corresponds to luminescence intensity.
Intensities were normalized relative to the average values from 16 wells containing media alone (blank-low) and 16 wells containing cells+DMSO (high). % Degradation for each well was determined using the standard equation, where
DC50 (IC50) values for each compound tested are calculated by analyzing plots of % degradation versus compound concentration, and fitting to the standard 4-parameter logistic curve where,
Top and bottom are the % degradation at infinitely large and infinitely small compound concentrations, respectively, while Halfmax is the compound concentration yielding % degradation corresponding to ½ Top-Bottom, and N is the Hill coefficient. DC50 values are calculated according to the relationship,
Compound replicates were performed in independent assays. Maximum degradation (YMax) was defined as the maximal % degradation value from the 4-parameter logistic equation, as previously described.

T1 sequence (Q16204+P07949 fused): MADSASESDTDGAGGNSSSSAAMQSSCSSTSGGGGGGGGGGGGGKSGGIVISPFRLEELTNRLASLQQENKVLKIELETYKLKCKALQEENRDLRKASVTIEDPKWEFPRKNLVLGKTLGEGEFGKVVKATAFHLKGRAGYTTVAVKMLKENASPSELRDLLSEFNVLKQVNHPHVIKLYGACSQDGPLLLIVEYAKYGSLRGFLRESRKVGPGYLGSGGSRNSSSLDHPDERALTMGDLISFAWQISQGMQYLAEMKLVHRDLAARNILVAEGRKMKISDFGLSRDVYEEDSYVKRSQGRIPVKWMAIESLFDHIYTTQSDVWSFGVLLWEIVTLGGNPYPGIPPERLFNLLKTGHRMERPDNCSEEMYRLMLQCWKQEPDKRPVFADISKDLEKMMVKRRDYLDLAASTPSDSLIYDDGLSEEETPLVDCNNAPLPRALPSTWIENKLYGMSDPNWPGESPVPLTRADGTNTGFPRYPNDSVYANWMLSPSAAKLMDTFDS
T1 sequence (Q96SW2 whole entry, the tested form may be a part): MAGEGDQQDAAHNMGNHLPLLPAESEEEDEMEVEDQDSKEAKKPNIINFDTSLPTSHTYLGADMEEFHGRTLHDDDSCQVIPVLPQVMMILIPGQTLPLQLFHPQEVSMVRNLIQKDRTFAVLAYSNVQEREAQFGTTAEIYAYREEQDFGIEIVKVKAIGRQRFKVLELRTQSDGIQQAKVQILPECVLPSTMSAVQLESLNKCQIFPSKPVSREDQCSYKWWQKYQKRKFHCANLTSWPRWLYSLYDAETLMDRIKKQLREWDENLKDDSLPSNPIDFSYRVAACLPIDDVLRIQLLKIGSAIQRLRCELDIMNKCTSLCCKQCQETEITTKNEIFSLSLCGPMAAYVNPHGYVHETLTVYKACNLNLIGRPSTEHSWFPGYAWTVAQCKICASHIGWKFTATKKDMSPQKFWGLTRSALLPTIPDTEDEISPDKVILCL

DC50 [nM] | Compound
1.77 | CC(C)n1nc(-c2noc(C3CC3)c2-c2cn(C3CCN(C(=O)CCCCCCN4CCN(c5ccc6c(c5)CN(C5CCC(=O)NC5=O)C6=O)CC4)CC3)cn2)c2c(N)ncnc21 (stereo not drawn) [Example A12, 3-[5-(4-{7-[4-(4-{3-[4-amino-1-(propan-2-yl)-1H-pyrazolo[3,4-d]pyrimidin-3-yl]-5-cyclopropyl-1,2-oxazol-4-yl}-1H-imidazol-1-yl)piperidin-1-yl]-7-oxoheptyl}piperazin-1-yl)-1-oxo-2,3-dihydro-1H-isoindol-2-yl]piperidine-2,6-dione]
2.02 | CC(C)n1nc(-c2noc(C3CC3)c2-c2cn(C3CCN(C(=O)CCCCCCN4CCC(c5ccc6c(c5)CN(C5CCC(=O)NC5=O)C6=O)CC4)CC3)cn2)c2c(N)ncnc21 (stereo not drawn) [Example A14, 3-[5-(1-{7-[4-(4-{3-[4-amino-1-(propan-2-yl)-1H-pyrazolo[3,4-d]pyrimidin-3-yl]-5-cyclopropyl-1,2-oxazol-4-yl}-1H-imidazol-1-yl)piperidin-1-yl]-7-oxoheptyl}piperidin-4-yl)-1-oxo-2,3-dihydro-1H-isoindol-2-yl]piperidine-2,6-dionc]
43.2 | CC(C)n1nc(-c2noc(C3CC3)c2-c2cn(C3CCN(C(=O)CCCCN4CCC(c5ccc6c(c5)C(=O)N(C5CCC(=O)NC5=O)C6)CC4)CC3)cn2)c2c(N)ncnc21 (stereo not drawn) [Example A17, 3-[6-(1-{5-[4-(4-{3-[4-amino-1-(propan-2-yl)-1H-pyrazolo[3,4-d]pyrimidin-3-yl]-5-cyclopropyl-1,2-oxazol-4-yl}-1H-imidazol-1-yl)piperidin-1-yl]-5-oxopentyl}piperidin-4-yl)-1-oxo-2,3-dihydro-1H-isoindol-2-yl]piperidine-2,6-dione]
27.8 | CC(C)n1nc(-c2noc(C3CC3)c2C2CCN(C(=O)CCCCCCN3CCN(c4ccc5c(c4)C(=O)N(C4CCC(=O)NC4=O)C5)CC3)CC2)c2c(N)ncnc21 (stereo not drawn) [Example A19, 3-(6-{4-[7-(4-{3-[4-amino-1-(propan-2-yl)-1H-pyrazolo[3,4-d]pyrimidin-3-yl]-5-cyclopropyl-1,2-oxazol-4-yl}piperidin-1-yl)-7-oxoheptyl]piperazin-1-yl}-1-oxo-2,3-dihydro-1H-isoindol-2-yl)piperidine-2,6-dione]
4.88 | COC1(C(=O)N[C@@H](CCCNC(=O)CCCCCCCCNc2cccc(C3CCC(=O)NC3=O)c2)c2ccc(-n3cc(F)cn3)nc2)CCN(c2nc(C)cc(Nc3cc(C)[nH]n3)n2)CC1 (stereo partly drawn) [Example A29]
13.2 | COC1(C(=O)N[C@@H](CCCNC(=O)CCCCCCN2CCN(c3ccc4c(c3)CN(C3CCC(=O)NC3=O)C4=O)CC2)c2ccc(-n3cc(F)cn3)nc2)CCN(c2nc(C)cc(Nc3cc(C)[nH]n3)n2)CC1 (stereo partly drawn) [Example A34, 7-{4-[2-(2,6-dioxopiperidin-3-yl)-1-oxo-2,3-dihydro-1H-isoindol-5-yl]piperazin-1-yl}-N-[(4S)-4-[6-(4-fluoro-1H-pyrazol-1-yl)pyridin-3-yl]-4-[(4-methoxy-1-{4-methyl-6-[(5-methyl-1H-pyrazol-3-yl)amino]pyrimidin-2-yl}piperidin-4-yl)formamido]butyl] heptanamide]

Continued, compound first:

Compound | DC50 [nM]
Nc1ncnc2c1c(-c1noc(C3CC3)c1-c1ccccn1)nn2[C@H]1C[C@H](C(=O)NCCCCN2CCN(c3ccc4c(c3)CN(C3CCC(=O)NC3=O)C4=O)CC2)C1 (stereo partly drawn) [Example A2, (1r,3r)-3-{4-amino-3-[5-cyclopropyl-4-(pyridin-2-yl)-1,2-oxazol-3-yl]-1H-pyrazolo[3,4-d]pyrimidin-1-yl}-N-(4-{4-[2-(2,6-dioxopiperidin-3-yl)-1-oxo-2,3-dihydro-1H-isoindol-5-yl]piperazin-1-yl}butyl)cyclobutane-1-carboxamide] | 3.17
Nc1ncnc2c1c(-c1noc(C3CC3)c1-c1ccccn1)nn2[C@H]1C[C@H](C(=O)NCCN2CCC(c3ccc4c(c3)CN(C3CCC(=O)NC3=O)C4=O)CC2)C1 (stereo partly drawn) [Example A3, (1r,3r)-3-{4-amino-3-[5-cyclopropyl-4-(pyridin-2-yl)-1,2-oxazol-3-yl]-1H-pyrazolo[3,4-d]pyrimidin-1-yl}-N-(2-{4-[2-(2,6-dioxopiperidin-3-yl)-1-oxo-2,3-dihydro-1H-isoindol-5-yl]piperidin-1-yl}ethyl)cyclobutane-1-carboxamide] | 10.2
Nc1ncnc2c1c(-c1noc(C3CC3)c1-c1ccccn1)nn2[C@H]1C[C@H](C(=O)NCCCCN2CCC(c3ccc4c(c3)CN(C3CCC(=O)NC3=O)C4=O)CC2)C1 (stereo partly drawn) [Example A4, (1r,3r)-3-{4-amino-3-[5-cyclopropyl-4-(pyridin-2-yl)-1,2-oxazol-3-yl]-1H-pyrazolo[3,4-d]pyrimidin-1-yl}-N-(4-{4-[2-(2,6-dioxopiperidin-3-yl)-1-oxo-2,3-dihydro-1H-isoindol-5-yl]piperidin-1-yl}butyl) cyclobutane-1-carboxamide] | 6.51
Nc1ncnc2c1c(-c1noc(C3CC3)c1-c1ccccn1)nn2[C@H]1C[C@H](C(=O)NCCCCCCN2CCC(c3ccc4c(c3)CN(C3CCC(=O)NC3=O)C4=O)CC2)C1 (stereo partly drawn) [Example A5, (1r,3r)-3-{4-amino-3-[5-cyclopropyl-4-(pyridin-2-yl)-1,2-oxazol-3-yl]-1H-pyrazolo[3,4-d]pyrimidin-1-yl}-N-(6-{4-[2-(2,6-dioxopiperidin-3-yl)-1-oxo-2,3-dihydro-1H-isoindol-5-yl]piperidin-1-yl}hexyl)cyclobutane-1-carboxamide] | 9.27
Nc1ncnc2c1c(-c1noc(C3CC3)c1-c1ccccn1)nn2[C@H]1C[C@H](C(=O)NCCCCN2CCN(c3ccc4c(c3)C(=O)N(C3CCC(=O)NC3=O)C4)CC2)C1 (stereo partly drawn) [Example A6, (1r,3r)-3-{4-amino-3-[5-cyclopropyl-4-(pyridin-2-yl)-1,2-oxazol-3-yl]-1H-pyrazolo[3,4-d]pyrimidin-1-yl}-N-(4-{4-[2-(2,6-dioxopiperidin-3-yl)-3-oxo-2,3-dihydro-1H-isoindol-5-yl]piperazin-1-yl}butyl) cyclobutane-1-carboxamide] | 6.42
Nc1ncnc2c1c(-c1noc(C3CC3)c1-c1ccccn1)nn2[C@H]1C[C@H](C(=O)NCCCCCCN2CCN(c3ccc4c(c3)C(=O)N(C3CCC(=O)NC3=O)C4)CC2)C1 (stereo partly drawn) [Example A7, (1r,3r)-3-{4-amino-3-[5-cyclopropyl-4-(pyridin-2-yl)-1,2-oxazol-3-yl]-1H-pyrazolo[3,4-d]pyrimidin-1-yl}-N-(6-{4-[2-(2,6-dioxopiperidin-3-yl)-3-oxo-2,3-dihydro-1H-isoindol-5-yl]piperazin-1-yl}hexyl) cyclobutane-1-carboxamide] | 5.32
Nc1ncnc2c1c(-c1noc(C3CC3)c1-c1ccccn1)nn2[C@H]1C[C@H](C(=O)NCCCCN2CCC(c3ccc4c(c3)C(=O)N(C3CCC(=O)NC3=O)C4)CC2)C1 (stereo partly drawn) [Example A8, (1r,3r)-3-{4-amino-3-[5-cyclopropyl-4-(pyridin-2-yl)-1,2-oxazol-3-yl]-1H-pyrazolo[3,4-d]pyrimidin-1-yl}-N-(4-{4-[2-(2,6-dioxopiperidin-3-yl)-3-oxo-2,3-dihydro-1H-isoindol-5-yl]piperidin-1-yl}butyl)cyclobutane-1-carboxamide] | 17.4
Nc1ncnc2c1c(-c1noc(C3CC3)c1-c1ccccn1)nn2[C@H]1C[C@H](C(=O)NCCCCCCN2CCC(c3ccc4c(c3)C(=O)N(C3CCC(=O)NC3=O)C4)CC2)C1 (stereo partly drawn) [Example A9, (1r,3r)-3-{4-amino-3-[5-cyclopropyl-4-(pyridin-2-yl)-1,2-oxazol-3-yl]-1H-pyrazolo[3,4-d]pyrimidin-1-yl}-N-(6-{4-[2-(2,6-dioxopiperidin-3-yl)-3-oxo-2,3-dihydro-1H-isoindol-5-yl]piperidin-1-yl}hexyl)cyclobutane-1-carboxamide] | 22
Nc1ncnc2c1c(-c1noc(C3CC3)c1-c1ccccn1)nn2[C@H]1C[C@H](C(=O)NCCCCNc2ccc(C3CCC(=O)NC3=O)cc2)C1 (stereo partly drawn) [Example A11, (1r,3r)-3-{4-amino-3-[5-cyclopropyl-4-(pyridin-2-yl)-1,2-oxazol-3-yl]-1H-pyrazolo[3,4-d]pyrimidin-1-yl}-N-(4-{[4-(2,6-dioxopiperidin-3-yl)phenyl]amino}butyl) cyclobutane-1-carboxamide] | 57.6
